Source: paper PMC11311842, “Radiosynthesis and Preclinical Evaluation of ^18F-Labeled Estradiol Derivatives with Different Lipophilicity for PET Imaging of Breast Cancer” (Cancers, 2024)
“Also recorded” adds a separate entry of the source.

How the values were obtained:
[1] = system: MCF-7 (ER+) tumor-bearing nude mice; assay: Small animal PET imaging; format: in vivo
Experimental: Female NMRI nude mice (Crl:NMRI-Foxn1^nu) were purchased from Charles River (Charles River Laboratories Inc., Wilmington, MA, USA) at the age of four weeks and kept in groups of four to five animals in individually ventilated cages in a twelve hours dark/light cycle, with unlimited access to water and standard chow. At the age of nine to ten weeks, one 17β-estradiol pellet per animal (0.72 mg per pellet, 3 mm diameter) with a 60-day release time (Innovative Research of America, Sarasota, FL, USA) was subcutaneously implanted on the back under isoflurane anesthesia. After three days, approximately 2–3 × 10^6 MCF-7, T47D or MDA-MB-231 tumor cells (in 50 µL PBS) were mixed with Matrigel (50 µL, BD Biosciences, Becton, Dickinson and Company, Franklin Lakes, NJ, USA) and injected subcutaneously to the back of the mice. Tumor diameters and weight of the animals were recorded five times a week. Biodistribution or imaging studies were performed three–four weeks after the inoculation of the cells. […] Dynamic images were acquired for 60 min, starting with the injection of the radiotracer. […] Regions of interest (ROIs) were drawn over the tumor, and the mean radioactivity concentration within these regions was obtained from the mean values and calculated as a percentage of the total injected dose per gram tissue (%ID/g).

MCF-7 cells = assay: Stability in cells (radio-HPLC of cell lysate); format: in vitro ADME, human; conditions: 90 min incubation, 37 °C, absence of serum
Experimental: ^18F-TA-Glyco-EE was incubated for 90 min at 37 °C with MCF-7 cells (350,000 cells/well, seeded one day prior to the experiment in 24-well plates) in cell culture medium. After washing twice with ice-cold PBS, the cells were scraped off, and 200 µL PBS was added for resuspension. The cell suspension was transferred to Eppendorf tubes, homogenized using ultrasound (Bandelin sonoplus HD2070 ultrasonic homogenizer, room temperature, BANDELIN electronic GmbH, Berlin, Germany) and then centrifuged. The supernatant was quenched in 10% TFA, and after centrifugation the resulting supernatant was analyzed by radio-HPLC (Chromolith RP-18e, 100 × 4.6 mm, 10–100% acetonitrile (containing 0.1% TFA) in water (containing 0.1% TFA) over 5 min, 4 mL/min).

[2] = Plasma protein binding (MicroSpin G-50 columns); format: in vitro ADME; conditions: human plasma, 10 min, 37 °C
Experimental: MicroSPin G-50 columns (Cytiva, Merck KGaA, Darmstadt, Germany) were preconditioned according to the manufacturer’s protocol and the experiment was performed as follows. In brief, an aliquot of the tracer (1 µL, approx. 250 kBq) was added to NaCl (0.9%, 200 µL, negative control) or human plasma (200 µL) and incubated for 10 min at 37 °C. A sample from the plasma or negative control (40 µL) was carefully added to the resin, and the column was placed in an Eppendorf tube. After centrifugation (2 min, 2000× g), the eluate and the resin were collected separately. Both were measured for radioactivity using a γ-counter (Wallac Wizard, PerkinElmer, Waltham, MA, USA), and the radioactivity eluted from the resin was calculated as a percentage of the total amount of radioactivity. The determination of plasma protein binding was performed twice in duplicate.

With `CC(=O)OC1C(C[18F])OC(n2cc(C3(O)CCC4C5CCc6cc(O)ccc6C5CCC43C)nn2)C(OC(C)=O)C1OC(C)=O` (stereo not shown) [^18F-TA-Glyco-EE] the “Uptake in MCF-7 tumors (PET)” value ([1]; 60 min p.i.) was “around 1 %ID/g”, the “Tumor uptake, non-treated versus fulvestrant-treated animals (PET)” value ([1]; fulvestrant 0.5 mg s.c., second scan 48 h later, n = 4) was “significantly reduced tumor uptake on PET scans in one of the four animals; also recorded: did not show a significant difference” and the “Stability in MCF-7 cells (intracellular radioactivity, HPLC)” value (MCF-7 cells) was “without any significant deacetylation”. For the same compound, the “Plasma Protein Binding” value [2] was 79 ± 1%.
